Experimental data taken from patent US20170342025A1, “ANTIMICROBIAL COMPOUNDS, COMPOSITIONS AND METHODS” (Swansea University, priority 2014, published 2017).
Like-named read-outs stand apart in the source and are kept apart here.

What was measured:
[1] = test system: Escherichia coli (strain JM109); assay: MIC determination against Escherichia coli (Andrews protocol); assay type: cell-based; settings: for MIC: Escherichia coli, read-out: MIC E. coli
Experimental: (§1) Minimum Inhibitory Concentrations (MICs) for the compounds prepared were determined against Escherichia coli (strain JM109) and Staphylococcus aureus (strain 9518) using the protocols described by Andrews (J. Antimicrob. Chemother., 2001, 48, Suppl. S1, 5-16).

[2] = test system: Staphylococcus aureus (strain 9518); assay: MIC determination against Staphylococcus aureus (Andrews protocol); assay type: cell-based; settings: for MIC: Staphylococcus aureus, read-out: MIC S. aureus
Experimental: as §1

[3] = Staphylococcus aureus strain 9518

| SMILES | MIC ([1]; Escherichia coli strain JM109) | MIC [2, 3] | MIC [1] | MIC [2] | other results |
| --- | --- | --- | --- | --- | --- |
| N=C(N)N1CCN(c2ccc(Cl)cc2)CC1.O=C(O)C(F)(F)F.O=C(O)C(F)(F)F [Compound 44a, 4-(4-chlorophenyl)piperazine-1-carboximidamide bis-(2,2,2-trifluoroacetate)] | > 100 µg/mL | > 100 µg/mL | – | – | – |
| Cl.N=C(N)N1CCc2c(cccc2OCc2cccc(Cl)c2Cl)C1 [Compound 38, 5-[(2,3-dichlorophenyl)methoxy]-1,2,3,4-tetrahydroisoquinoline-2-carboximidamide hydrochloride] | 10 to 32 µg/mL | 10 to 32 µg/mL | – | – | – |
| N=C(N)Nc1ccc(OCc2cccc(Cl)c2)cc1.O=C(O)C(F)(F)F [Compound 23c, 1-{4-[(3-chlorophenyl)methoxy]phenyl}guanidine 2,2,2-trifluoroacetate] | > 100 µg/mL | 10 to 32 µg/mL | – | – | – |
| Cl.N=C(N)N/N=C/c1cccc(OCc2ccc(C(F)(F)F)cc2)c1 [Compound 49f, (E)-Amino(2-(3-((4-(trifluoromethyl)benzyl)oxy)benzylidene)hydrazinyl) methaniminium chloride] | – | – | – | – | MIC E. coli ([1]; Escherichia coli strain JM109): ++ (MIC 10-32 μg/mL); MIC S. aureus [2, 3]: +++ (MIC 1-10 μg/mL) |
| N=C(N)NCc1c(F)ccc(OCc2cccc(C(F)(F)F)c2)c1F.O=C(O)C(F)(F)F [Compound 4p, 1-[(2,6-difluoro-3-{[3-(trifluoromethyl)phenyl]methoxy}phenyl)methyl]guanidine 2,2,2-trifluoroacetate] | – | – | 1 to 10 µg/mL | 1 to 10 µg/mL | – |
| Cl.N=C(N)N/N=C/c1nccn1Cc1cccc(C(F)(F)F)c1 [Compound 61c, (E)-Amino(2-((1-(3-(trifluoromethyl)benzyl)-1H-imidazol-2-yl)methylene) hydrazinyl)methaniminium chloride] | 32 to 100 µg/mL | 32 to 100 µg/mL | – | – | – |
| COc1cccc(N2CCN(C(=N)N)CC2)c1.O=C(O)C(F)(F)F.O=C(O)C(F)(F)F [Compound 44b, 4-(3-methoxyphenyl)piperazine-1-carboximidamide bis-(2,2,2-trifluoroacetate)] | > 100 µg/mL | > 100 µg/mL | – | – | – |
| COc1ccc(CNC(=N)N)cc1OCc1ccc(Cl)cc1.O=C(O)C(F)(F)F [Compound 4n, 1-({3-[(4-chlorophenyl)methoxy]-4-methoxyphenyl}methyl)guanidine 2,2,2-trifluoroacetate] | – | – | > 100 µg/mL | 32 to 100 µg/mL | – |
| COCCN(Cc1cccc(OCc2cccc(Cl)c2Cl)c1)C(=N)N.O=C(O)C(F)(F)F [Compound 9b, 1-({3-[(2,3-dichlorophenyl)methoxy]phenyl}methyl)-1-(2-methoxyethyl) guanidine 2,2,2-trifluoroacetate] | 10 to 32 µg/mL | 10 to 32 µg/mL | – | – | – |
| CN(Cc1cccc(OCc2cccc(Cl)c2Cl)c1)C(=N)N.Cl [Compound 10a, 1-({3-[(2,3-dichlorophenyl)methoxy]phenyl}methyl)-1-methylguanidine hydrochloride] | 32 to 100 µg/mL | 10 to 32 µg/mL | – | – | – |
| N=C(N)Nc1ccc(CNC(=O)c2ccccc2)cc1.O=C(O)C(F)(F)F [Compound 59a, Amino((4-(benzamidomethyl)phenyl)amino)methaniminium 2,2,2-trifluoroacetate] | – | – | 32 to 100 µg/mL | 32 to 100 µg/mL | – |
| N=C(N)NCc1cccc(NC(=O)c2ccccc2)c1.O=C(O)C(F)(F)F [Compound 57a, Amino((3-benzamidobenzyl)amino)methaniminium 2,2,2-trifluoroacetate] | – | – | 32 to 100 µg/mL | 32 to 100 µg/mL | – |
| N=C(N)NCc1ccc(OCc2ccc(Cl)cc2)cc1.O=C(O)C(F)(F)F [Compound 19b, 1-(4-((4-chlorobenzyl)oxy)benzyl)guanidine 2,2,2-trifluoroacetate] | > 100 µg/mL | 32 to 100 µg/mL | – | – | – |
| CC(C)(C)OC(=O)NC(=N)N1CCc2ccc(-c3ccc(C(C)(C)C)cc3)cc2C1.O=C(O)C(F)(F)F [Compound 28, tert-butyl N-[7-(4-tert-butylphenyl)-1,2,3,4-tetrahydroisoquinoline-2-carboximidoyl]carbamate 2,2,2-trifluoroacetate] | > 100 µg/mL | 32 to 100 µg/mL | – | – | – |
| N=C(N)NCc1ccc(NS(=O)(=O)c2ccc(Cl)cc2)cc1.O=C(O)C(F)(F)F [Compound 55b, Amino((4-((4-chlorophenyl)sulfonamido)benzyl)amino)methaniminium 2,2,2-trifluoroacetate] | 32 to 100 µg/mL | 32 to 100 µg/mL | – | – | – |
| Cl.N=C(N)N/N=C/c1cccn1Cc1cccc(Cl)c1 [Compound 61e, (E)-Amino(2-((1-(3-chlorobenzyl)-1H-pyrrol-2-yl)methylene)hydrazinyl) methaniminium chloride] | 32 to 100 µg/mL | 10 to 32 µg/mL | – | – | – |
| N=C(N)NC(=O)c1cccc(OCc2ccccc2)c1.O=C(O)C(F)(F)F [Compound 47, 3-(benzyloxy)-N-carbamimidoylbenzamide 2,2,2-trifluoroacetate] | – | – | 32 to 100 µg/mL | 10 to 32 µg/mL | – |
| N=C(N)NCc1cccc(OCc2ccc(C(F)(F)F)cc2)c1.O=C(O)C(F)(F)F [Compound 4h, 1-[(3-{[4-(trifluoromethyl)phenyl]methoxy}phenyl)methyl]guanidine 2,2,2-trifluoroacetate] | – | – | 1 to 10 µg/mL | 1 to 10 µg/mL | – |

| SMILES | MIC ([1]; Escherichia coli strain JM109) | MIC [2, 3] | MIC [1] | MIC [2] | other results |
| --- | --- | --- | --- | --- | --- |
| N=C(N)NCc1cccc(N)c1.O=C(O)C(F)(F)F [Compound 53a, Amino((3-aminobenzyl)amino)methaniminium 2,2,2-trifluoroacetate] | – | – | 32 to 100 µg/mL | 32 to 100 µg/mL | – |
| N=C(N)NCc1ccc(NS(=O)(=O)c2cccc(Cl)c2Cl)cc1.O=C(O)C(F)(F)F [Compound 55c, Amino((4-((2,3-dichlorophenyl)sulfonamido)benzyl)amino)methaniminium 2,2,2-trifluoroacetate] | 32 to 100 µg/mL | 32 to 100 µg/mL | – | – | – |
| N=C(N)NCc1cccc(NS(=O)(=O)c2ccc(Cl)cc2)c1.O=C(O)C(F)(F)F [Compound 55f, Amino((3-((4-chlorophenyl)sulfonamido)benzyl)amino)methaniminium 2,2,2-trifluoroacetate] | 32 to 100 µg/mL | 32 to 100 µg/mL | – | – | – |
| N=C(N)NCc1cccc(OCc2cccc(C(F)(F)F)c2)c1.O=C(O)C(F)(F)F [Compound 4i, 1-[(3-{[3-(trifluoromethyl)phenyl]methoxy}phenyl)methyl]guanidine 2,2,2-trifluoroacetate] | – | – | 1 to 10 µg/mL | 1 to 10 µg/mL | – |
| N=C(N)NCc1cccc(OCc2ccc(Br)cc2)c1.O=C(O)C(F)(F)F [Compound 4j, 1-({3-[(4-bromophenyl)methoxy]phenyl}methyl)guanidine 2,2,2-trifluoroacetate] | – | – | 1 to 10 µg/mL | 10 to 32 µg/mL | – |
| N=C(N)NCc1cccc(OCc2ccc(Cl)c(Cl)c2)c1.O=C(O)C(F)(F)F [Compound 4e, 1-({3-[(3,4-dichlorophenyl)methoxy]phenyl}methyl)guanidine 2,2,2-trifluoroacetate] | – | – | 10 to 32 µg/mL | 1 to 10 µg/mL | – |
| N=C(N)NCc1cccc(NS(=O)(=O)c2cccc(C(F)(F)F)c2)c1.O=C(O)C(F)(F)F [Compound 55h, Amino((3-((3-(trifluoromethyl)phenyl)sulfonamido)benzyl)amino) methaniminium 2,2,2-trifluoroacetate] | 32 to 100 µg/mL | 32 to 100 µg/mL | – | – | – |
| Cl.N=C(N)N/N=C/c1cccn1Cc1cccc(C(F)(F)F)c1 [Compound 61g, (E)-Amino(2-((1-(3-(trifluoromethyl)benzyl)-1H-pyrrol-2-yl)methylene) hydrazinyl)methaniminium chloride] | 10 to 32 µg/mL | 10 to 32 µg/mL | – | – | – |
| Cl.N=C(N)N/N=C/c1nccn1Cc1ccc(Cl)cc1 [Compound 61b, (E)-Amino(2-((1-(4-chlorobenzyl)-1H-imidazol-2-yl)methylene)hydrazinyl) methaniminium chloride] | 10 to 32 µg/mL | 10 to 32 µg/mL | – | – | – |
| N=C(N)NCc1c(F)ccc(OCc2cccc(Cl)c2Cl)c1F.O=C(O)C(F)(F)F [Compound 4o, 1-({3-[(2,3-dichlorophenyl)methoxy]-2,6-difluorophenyl}methyl)guanidine 2,2,2-trifluoroacetate] | – | – | 1 to 10 µg/mL | 1 to 10 µg/mL | – |
| N=C(N)NCc1cccc(OCc2ccc(Cl)cc2)c1.O=C(O)C(F)(F)F [Compound 4b, 1-({3-[(4-chlorophenyl)methoxy]phenyl}methyl)guanidine 2,2,2-trifluoroacetate] | – | – | 1 to 10 µg/mL | 1 to 10 µg/mL | – |
| N=C(N)NCc1cccc(NS(=O)(=O)c2cccc(Cl)c2)c1.O=C(O)C(F)(F)F [Compound 55e, Amino((3-((3-chlorophenyl)sulfonamido)benzyl)amino)methaniminium 2,2,2-trifluoroacetate] | 32 to 100 µg/mL | 32 to 100 µg/mL | – | – | – |
| N=C(N)NCc1cccc(OCc2ccc(F)cc2)c1.O=C(O)C(F)(F)F [Compound 4k, 1-({3-[(4-fluorophenyl)methoxy]phenyl}methyl)guanidine 2,2,2-trifluoroacetate] | – | – | 10 to 32 µg/mL | 32 to 100 µg/mL | – |
| N=C(N)NCc1ccc(N)cc1.O=C(O)C(F)(F)F [Compound 53b, Amino((4-aminobenzyl)amino)methaniminium 2,2,2-trifluoroacetate] | – | – | 32 to 100 µg/mL | 32 to 100 µg/mL | – |
| N=C(N)NCc1ccc(OCc2cccc(Cl)c2)cc1.O=C(O)C(F)(F)F [Compound 19c, 1-(4-((3-chlorobenzyl)oxy)benzyl)guanidine 2,2,2-trifluoroacetate] | > 100 µg/mL | 10 to 32 µg/mL | – | – | – |
| N=C(N)NCc1ccc(NS(=O)(=O)c2cccc(C(F)(F)F)c2)cc1.O=C(O)C(F)(F)F [Compound 55d] | – | – | – | – | MIC E. coli ([1]; Escherichia coli strain JM109): + (32-100 μg/mL); MIC S. aureus [2, 3]: + (32-100 μg/mL) |
| N=C(N)NCc1cccc(OCc2cccc(Cl)c2)c1.O=C(O)C(F)(F)F [Compound 4c, 1-({3-[(3-chlorophenyl)methoxy]phenyl}methyl)guanidine 2,2,2-trifluoroacetate] | – | – | 10 to 32 µg/mL | 10 to 32 µg/mL | – |
| Cl.N=C(N)N/N=C/c1cccc(OCc2cccc(Cl)c2)c1 [Compound 49e, (E)-Amino(2-(3-((3-chlorobenzyl)oxy)benzylidene)hydrazinyl)methaniminium chloride] | 1 to 10 µg/mL | 10 to 32 µg/mL | – | – | – |
